Values after ≈ are worked out from the molar mass of the structure shown. Read-outs that look alike come from different tables or passages of the source.
What was measured:
[1] = molecular target: T1, full-length beta-Catenin (Uniprot ID P35222) (Homo sapiens, UniProt P35222); experiment: Fluorescence polarization IC50 (beta-catenin / 5FAM-TCF4 10-53 competition); type: binding
T1 construct: 10 nM full-length beta-Catenin (Uniprot ID P35222)
T1 sequence (P35222 1-781): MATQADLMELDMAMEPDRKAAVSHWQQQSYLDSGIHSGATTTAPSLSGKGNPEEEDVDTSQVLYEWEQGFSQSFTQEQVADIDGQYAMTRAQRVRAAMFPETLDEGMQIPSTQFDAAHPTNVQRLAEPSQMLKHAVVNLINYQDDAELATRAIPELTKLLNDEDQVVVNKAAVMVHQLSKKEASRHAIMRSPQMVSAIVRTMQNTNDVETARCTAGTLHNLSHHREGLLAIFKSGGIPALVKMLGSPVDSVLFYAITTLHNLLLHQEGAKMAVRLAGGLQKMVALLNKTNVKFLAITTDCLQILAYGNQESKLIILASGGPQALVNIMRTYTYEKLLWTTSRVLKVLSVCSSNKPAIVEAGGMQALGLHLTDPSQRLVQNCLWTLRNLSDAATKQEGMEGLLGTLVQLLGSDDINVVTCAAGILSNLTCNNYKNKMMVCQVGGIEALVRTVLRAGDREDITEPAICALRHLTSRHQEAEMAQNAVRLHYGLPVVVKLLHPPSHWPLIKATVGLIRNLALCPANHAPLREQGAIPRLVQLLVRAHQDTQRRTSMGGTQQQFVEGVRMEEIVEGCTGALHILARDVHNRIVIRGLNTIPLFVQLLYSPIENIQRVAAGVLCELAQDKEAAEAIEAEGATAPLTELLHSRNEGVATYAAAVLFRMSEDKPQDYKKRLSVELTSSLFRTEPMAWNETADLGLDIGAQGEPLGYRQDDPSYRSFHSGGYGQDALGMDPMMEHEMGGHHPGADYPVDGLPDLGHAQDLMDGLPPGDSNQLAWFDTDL

CHI Log D procedure = type: physicochemical; settings: for chromatographic logD: pH 7.4, CHI Log D; for CHI Log D: pH 7.4
Solubility in PBS = type: physicochemical
Outline: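 HPLC quantitation of peptide remaining in the PBS supernatant after ultracentrifugation, referenced to a 50 μM solution in DMSO.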

[2] = fluorescence polarization, read-out: beta-Catenin FP IC50
[3] = fluorescence polarization, beta-catenin, read-out: FP EC50

Structure (SMILES) | IC50 [1, 2] [nM] | chromatographic logD (CHI Log D procedure) | Solubility (Solubility in PBS; Solubility (uM)) [µM] | IC50 ([1]; read-out: beta-Catenin FP IC50) [nM] | Solubility (Solubility in PBS) [µM] | IC50 ([1]; read-out: FP EC50) [nM] | CHI Log D (CHI Log D procedure) | IC50 [1, 3] [nM]
CC(=O)N1CCC[C@]12CC=CCCCC1(CCCC=CCCCCCC[C@@](C)(C(=O)N[C@@H](Cc3ccccc3)C(=O)N[C@@H](Cc3csc4ccccc34)C(=O)N[C@@H](CCC(N)=O)C(N)=O)NC(=O)[C@H](CCC(N)=O)NC(=O)[C@H](Cc3ccccc3)NC(=O)[C@H](C)NC(=O)[C@H](C)NC(=O)[C@H](CCC(=O)O)NC(=O)[C@H](CC(=O)O)NC1=O)NC(=O)[C@H](C)NC(=O)[C@H](CC(=O)O)NC2=O (stereo partly drawn) [I-406, Ac-PL3-Asp-Ala-B5-Asp-Glu-Ala-Ala-Phe-Gln-S8-Phe-BztA-Gln-NH2] | 94 | 2.04 | 28 (≈ 51.6 µg/mL) |  |  |  |  | 
CC(=O)N1CCC[C@]12CC=CCCCC1(CCCC=CCCCOC(=O)N3CC[C@@](C(=O)N[C@@H](Cc4ccc(O)cc4)C(=O)N[C@@H](Cc4csc5ccccc45)C(=O)N[C@@H](CCC(N)=O)C(N)=O)(C3)NC(=O)[C@H](Cc3ccccc3)NC(=O)[C@H](Cc3ccccc3)NC(=O)[C@H](C)NC(=O)[C@H](C)NC(=O)[C@H](CN(CC(=O)O)CC(F)(F)F)NC(=O)[C@H](CC(=O)O)NC1=O)NC(=O)[C@H](CC(C)(C)C)NC(=O)[C@H](CC(=O)O)NC2=O (stereo partly drawn) [I-989, Ac-PL3-Asp-Npg-B5-Asp-TfeGA-Ala-Ala-Phe-Phe-PyrS2-Tyr-BztA-Gln-NH2] |  | 2.1 |  | 87 | 10 (≈ 20.7 µg/mL) |  |  | 
CC[C@H](C)[C@@H]1NC(=O)[C@H](CC(=O)O)NC(=O)[C@]2(CC=CCCCC3(CCCC=CCCCCCC[C@@](C)(C(=O)N[C@@H](Cc4ccccc4)C(=O)N[C@@H](Cc4csc5ccccc45)C(=O)N[C@@H](CCC(N)=O)C(N)=O)NC(=O)[C@H](CCC(N)=O)NC(=O)[C@H](Cc4ccccc4)NC(=O)[C@H](C)NC(=O)[C@H](C)NC(=O)[C@H](CCC(=O)O)NC(=O)[C@H](CC(=O)O)NC3=O)NC1=O)CCCN2S(C)(=O)=O (stereo partly drawn) [I-710, MeSO2-PL3-Asp-Ile-B5-Asp-Glu-Ala-Ala-Phe-Gln-S8-Phe-BztA-Gln-NH2] | 73 |  |  |  | 45 (≈ 86.4 µg/mL) | 73 | 2.143 | 
CC[C@H](C)[C@@H]1NC(=O)[C@H](CC(=O)O)NC(=O)[C@]2(CC=CCCCC3(CCCC=CCCCCCC[C@@](C)(C(=O)N[C@@H](Cc4ccccc4)C(=O)N[C@@H](Cc4csc5ccccc45)C(=O)N[C@@H](CCC(N)=O)C(N)=O)NC(=O)[C@H](CCC(N)=O)NC(=O)[C@H](Cc4ccccc4)NC(=O)[C@H](Cc4c[nH]c5ccccc45)NC(=O)[C@H](C)NC(=O)[C@H](CCC(=O)O)NC(=O)[C@H](CC(=O)O)NC3=O)NC1=O)CCCN2C(C)=O (stereo partly drawn) [I-664, Ac-PL3-Asp-Ile-B5-Asp-Glu-Ala-Trp-Phe-Gln-S8-Phe-BztA-Gln-NH2] | 996 |  |  |  | 45 (≈ 89.9 µg/mL) | 996 | 2.433 | 
CC[C@@H](C)[C@@H](NC(=O)[C@H](Cc1c[nH]cn1)NC(=O)[C@H](Cc1csc2ccccc12)NC(=O)[C@H](Cc1ccccc1)NC(=O)[C@]1(C)CCCCCCC=CCCCC2(CCCC=CC[C@]3(CCCN3C(C)=O)C(=O)N[C@@H](CC(=O)O)C(=O)N[C@@H](CC(C)C)C(=O)N2)C(=O)N[C@@H](CC(=O)O)C(=O)N[C@@H](CCC(=O)O)C(=O)N[C@@H](C)C(=O)N[C@@H](C)C(=O)N[C@@H](Cc2ccccc2)C(=O)N[C@@H](CC(N)=O)C(=O)N1)C(N)=O (stereo partly drawn) [I-742, Ac-PL3-Asp-Leu-B5-Asp-Glu-Ala-Ala-Phe-Asn-S8-Phe-BztA-His-dIle-NH2] | 159 | 2.8 | 27 (≈ 53.8 µg/mL) |  |  |  |  | 
CC(=O)N1CCC[C@]12CC=CCCCC1(CCCC=CCCCCCC[C@@](C)(C(=O)N[C@@H](Cc3ccccc3)C(=O)N[C@@H](Cc3csc4ccccc34)C(N)=O)NC(=O)[C@H](CC(N)=O)NC(=O)[C@H](Cc3ccccc3)NC(=O)[C@H](C)NC(=O)[C@H](C)NC(=O)[C@H](CCC(=O)O)NC(=O)[C@H](CC(=O)O)NC1=O)NC(=O)[C@H](CC(C)C)NC(=O)[C@H](CC(=O)O)NC2=O (stereo partly drawn) [I-624, Ac-PL3-Asp-Leu-B5-Asp-Glu-Ala-Ala-Phe-Asn-S8-Phe-BztA-NH2] | 273 |  |  |  | 27 (≈ 47 µg/mL) | 273 | 2.598 | 
CC(=O)N1CCC[C@]12CC=CCCCC1(CCCC=CCCCOC(=O)N3CC[C@@](C(=O)N[C@@H](Cc4ccsc4)C(=O)N[C@@H](Cc4csc5ccccc45)C(=O)N[C@@H](CO)C(N)=O)(C3)NC(=O)[C@H](Cc3ccccc3)NC(=O)[C@H](Cc3ccccc3)NC(=O)[C@H](C)NC(=O)[C@H](C)NC(=O)[C@H](Cc3cccc(C(=O)O)c3)NC(=O)[C@H](CC(=O)O)NC1=O)NC(=O)[C@H](CC(C)(C)C)NC(=O)[C@H](CC(=O)O)NC2=O (stereo partly drawn) [I-982, Ac-PL3-Asp-Npg-B5-Asp-3COOHF-Ala-Ala-Phe-Phe-PyrS2-3Thi-BztA-Ser-NH2] |  |  |  | 190 | 16 (≈ 31.8 µg/mL) |  | 1.853 | 190
CC(=O)N1CCC[C@]12CC=CCCCC1(CCCC=CCCCCCC[C@@](C)(C(=O)N[C@@H](Cc3ccccc3)C(=O)N[C@@H](Cc3csc4ccccc34)C(=O)N[C@@H](Cc3c[nH]cn3)C(N)=O)NC(=O)[C@H]([C@@H](C)O)NC(=O)[C@H](Cc3ccccc3)NC(=O)[C@H](C)NC(=O)[C@H](C)NC(=O)[C@H](CCC(=O)O)NC(=O)[C@H](CC(=O)O)NC1=O)NC(=O)[C@H](CC(C)C)NC(=O)[C@H](CC(=O)O)NC2=O (stereo partly drawn) [I-617, Ac-PL3-Asp-Leu-B5-Asp-Glu-Ala-Ala-Phe-Thr-S8-Phe-BztA-His-NH2] | 253 |  |  |  | 10 (≈ 18.7 µg/mL) | 253 | 2.549 | 
CC[C@H](C)[C@@H]1NC(=O)[C@H](CC(=O)O)NC(=O)[C@]2(CC=CCCCC3(CCCC=CCCCCCC[C@@](C)(C(=O)N[C@@H](Cc4ccccc4)C(=O)N[C@@H](Cc4csc5ccccc45)C(=O)N[C@@H](CCC(N)=O)C(N)=O)NC(=O)[C@H](CCC(N)=O)NC(=O)[C@H](Cc4ccccc4)NC(=O)[C@H](Cc4c[nH]c5ccccc45)NC(=O)[C@H](C)NC(=O)[C@H](CCC(=O)O)NC(=O)[C@H](CC(=O)O)NC3=O)NC1=O)CCCN2C(C)=O (stereo partly drawn) [I-665, Ac-PL3-Asp-Ile-B5-Asp-Glu-Ala-Trp-Phe-Gln-S8-Phe-BztA-Gln-NH2] | 923 |  |  |  | 47 (≈ 93.9 µg/mL) | 923 | 2.448 | 
CC[C@H](C)[C@@H]1NC(=O)[C@H](CC(=O)O)NC(=O)[C@]2(CC=CCCCC3(CCCC=CCCCCCC[C@@](C)(C(=O)N[C@@H](Cc4ccccc4)C(=O)N[C@@H](Cc4csc5ccccc45)C(=O)N[C@@H](CCC(N)=O)C(N)=O)NC(=O)[C@H](CCC(N)=O)NC(=O)[C@H](Cc4ccccc4)NC(=O)[C@H](C)NC(=O)[C@H](C)NC(=O)[C@H](CCCNC(=N)N)NC(=O)[C@H](CC(=O)O)NC3=O)NC1=O)CCCN2C(C)=O (stereo partly drawn) [I-613, Ac-PL3-Asp-Ile-B5-Asp-Arg-Ala-Ala-Phe-Gln-S8-Phe-BztA-Gln-NH2] | 1630 |  |  |  | 10 (≈ 19.1 µg/mL) | 1630 | 2.781 | 
CCN(CC(=O)O)C[C@@H]1NC(=O)[C@H](CC(=O)O)NC(=O)C2(CCCC=CCCCOC(=O)N3CC[C@@](C(=O)N[C@@H](Cc4ccsc4)C(=O)N[C@@H](Cc4csc5ccccc45)C(=O)N[C@@H](CO)C(N)=O)(C3)NC(=O)[C@H](CO)NC(=O)[C@H](Cc3ccccc3)NC(=O)[C@H](C)NC(=O)[C@H](C)NC1=O)CCCC=CC[C@]1(CCCN1C(C)=O)C(=O)N[C@@H](CC(=O)O)C(=O)N[C@@H](CC(C)(C)C)C(=O)N2 (stereo partly drawn) [I-974, Ac-PL3-Asp-Npg-B5-Asp-EtGA-Ala-Ala-Phe-Ser-PyrS2-3Thi-BztA-Ser-NH2] |  |  |  | 1780 | 10 (≈ 19.1 µg/mL) |  | 1.857 | 1780

Reference: patent publication US20240116985A1, “STAPLED PEPTIDES AND METHODS THEREOF” (priority 2020, published 2024)
